The term pIC50 denotes −log10 of the IC50, conventionally taken in molar units.

In patent US12338256B2, “Aza-tetracyclic oxazepine compounds and uses thereof” (Genentech, Inc., priority 2022, dated 2025) one finds IC50 data, which are given here for twelve compounds.

In experiment [1] the target is KRAS G12D (Homo sapiens, UniProt P01116, G12D). The experiment can be described thus: KRAS G12D LoEnz Biochemical Assay, BODIPY-GDP Exchange TR-FRET (Example 500). To be noted: read-out: KRas (G12D) GDP HTRF IC50. On the procedure: Example 500: KRAS G12D LoEnz Biochemical Assay, BODIPY-GDP Exchange TR-FRET. Biochemical compound potencies are assessed by evaluating inhibition of SOS1-mediated nucleotide exchange in KRAS G12D. In this assay, the SOS1-promoted exchange of fluorescently-labeled GDP (BOPIDY-GDP) is monitored by time-resolved fluorescence resonance energy transfer (TR-FRET). Compounds solubilized in DMSO are dispensed as concentration series into 384-well white assay plates. A preformed complex of biotin-tagged recombinant human KRAS (0.06 nM mutant G12D) and 0.06 nM terbium-labeled streptavidin (CisBIO) prepared in 10 uL/well assay buffer (20 mM HEPES, pH 7.5, 50 mM NaCl, 10 mM MgCl2, 0.01% Tween-20 and 1 mM dithiothreitol) is added and allowed to incubate for 10-minutes at room temperature. The reaction is initiated with the addition of 5 uL 300 nM recombinant human SOS1 and 300 nM BODIPY-GDP in assay buffer. After a 120-minute incubation, the fluorescence is measured with excitation at 337 nm and emission at 490 and 520 nm. The TR-FRET ratio is determined as the fluorescence at 520 nm divided by the fluorescence at 490 nm multiplied by 10,000. The results are normalized to percent inhibition based on control samples: DMSO (0% inhibition) and control compound at a concentration that inhibits completely (100% inhibition). The normalized TR-FRET results are plotted against compound concentration, and the data are fit to a 4-parameter Hill equation to determine the IC50 values.

Experiment [2] concerns HPAC (homozygous mutant KRAS G12D human pancreatic cell line). Description: KRAS 3D-Cell Proliferation Assay, HPAC (Example 503). Format: cell-based. Conditions: Homo sapiens, HPAC, 168 h, HPAC 3D culture, 7 days, CellTiter-Glo 3D; read-out: Prolif HPAC 3D ATP IC50. An outline of the steps: (§1)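 KRAS G12D homozygous pancreatic lines and KRAS wild-type lung lines grown as 3D cultures in ultra-low-attachment wells in RPMI-1640/10% FBS, dosed after overnight with compound dilution series (0.3% DMSO final) for 7 days at 37 °C. ATP read by CellTiter-Glo 3D luminescence; IC50 from 4-parameter Hill fit, normalized to DMSO and 1 μM staurosporine.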

For experiment [3], the system named is H1975 (KRAS wild type human lung adenocarcinoma cell line). Description: KRAS 3D-Cell Proliferation Assay, H1975 (Example 503). In kind it is cell-based. Conditions: Homo sapiens, NCI-H1975, 168 h, H1975 3D culture, 7 days, CellTiter-Glo 3D; read-out: Prolif H1975 3D ATP IC50. In short, it runs like this: as §1
Background: Cellular ATP, detected with luciferase, serves as a proxy for viable cell number.

For experiment [4], the system named is PC-9 (KRAS wild type human lung adenocarcinoma cell line). The experiment can be described thus: KRAS 3D-Cell Proliferation Assay, PC-9 (Example 503). Conditions: 168 h, PC-9 3D culture, 7 days, CellTiter-Glo 3D, read-out: Prolif PC9 3D ATP IC50. Format: cell-based. In short, it runs like this:
as §1

The subject of experiment [5] is AsPC-1 (homozygous mutant KRAS G12D human pancreatic cell line). The experiment can be described thus: KRAS 3D-Cell Proliferation Assay, AsPC-1 (Example 503). In kind it is cell-based. To be noted: Homo sapiens, ASPC1, 168 h, AsPC-1 3D culture, 7 days, CellTiter-Glo 3D; read-out: Prolif AsPC-1 3D ATP IC50. In short, it runs like this: as §1
The mark [6] stands for this setting: SOS1-mediated BODIPY-GDP exchange TR-FRET.

pIC50: −log10 of the molar value. Like-named read-outs stand apart in the source and are kept apart here. Where only a bound is given, the exact number is not on record here.

KRAS G12D, sequence (P01116 1-188 isoform P01116-2 G12D): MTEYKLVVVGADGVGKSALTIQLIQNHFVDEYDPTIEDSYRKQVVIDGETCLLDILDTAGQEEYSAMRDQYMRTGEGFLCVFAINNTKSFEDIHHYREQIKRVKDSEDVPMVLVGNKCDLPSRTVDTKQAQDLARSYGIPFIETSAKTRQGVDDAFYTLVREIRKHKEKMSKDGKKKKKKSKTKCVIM

For the compound `Cc1c(F)c(N)cc(-c2nc3c4c(nc(OC[C@]5(CN6CC7(COC7)C6)CC5(F)F)nc4c2F)N2C[C@H]4CC[C@H](N4)[C@H]2[C@H](C)O3)c1C(F)(F)F` (single isomer, unassigned) [165 b], the negative logarithm of the IC50 (pIC50) in experiment [1] (BODIPY-GDP exchange) was 10.00.
Take `Cc1cc(N)c(Cl)c(-c2nc3c4c(nc(OC[C@@]56CCCN5C[C@H](F)C6)nc4c2Cl)N2C[C@H]4CC[C@H](N4)[C@H]2[C@H](C)O3)c1C(F)(F)F` (single isomer, unassigned) [240 (atrop. 1)]: the negative-log IC50 (pIC50) in experiment [1] (setting [6]) was 7.35.
For `Cc1nc(N)cc(-c2nc3c4c(nc(OCC5(CN6CC7COCC(C6)C7(F)F)CC5)nc4c2F)N2C[C@H]4CC[C@H](N4)[C@H]2[C@H](C)O3)c1C(F)(F)F` [Compound 266, 4-((5S,5aS,6S,9R)-12-((1-((9,9-difluoro-3-oxa-7-azabicyclo[3.3.1]nonan-7-yl)methyl)cyclopropyl)methoxy)-1-fluoro-5-methyl-5a,6,7,8,9,10-hexahydro-5H-4-oxa-3,10a,11,13,14-pentaaza-6,9-methanonaphtho[1,8-ab]heptalene-2-yl)-6-methyl-5-(trifluoromethyl)pyridin-2-amine], the negative-log IC50 (pIC50) in experiment [1] (setting [6]) is 8.52.
For `C[C@@H]1Oc2nc(-c3cncc4cccc(Cl)c34)c(F)c3nc(OC[C@@]45CCCN4C[C@H](F)C5)nc(c23)N2C[C@H]3CC[C@H](N3)[C@@H]12` [Compound 38, (5S,5aS,6S,9R)-2-(5-Chloroisoquinolin-4-yl)-1-fluoro-12-(((2R,7aS)-2-fluorotetrahydro-1H-pyrrolizin-7a(5H)-yl)methoxy)-5-methyl-5a,6,7,8,9,10-hexahydro-5H-4-oxa-3,10a,11,13,14-pentaaza-6,9-methanonaphtho[1,8-ab]heptalene], the negative-log IC50 (pIC50) in experiment [2] is 7.02; in experiment [3], 5.55; in experiment [4], 5.13; in experiment [5], 6.57.
As for `Cc1c(F)c(N)cc(-c2nc3c4c(nc(OC[C@@H]5CC[C@H]6COCCN65)nc4c2F)N2C[C@H]4CC[C@H](N4)[C@H]2[C@H](C)O3)c1C(F)(F)F` [Compound 31, 2-fluoro-5-((5S,5aS,6S,9R)-1-fluoro-12-(((6S,8aS)-hexahydro-1H-pyrrolo[2,1-c][1,4]oxazin-6-yl)methoxy)-5-methyl-5a,6,7,8,9,10-hexahydro-5H-4-oxa-3,10a,11,13,14-pentaaza-6,9-methanonaphtho[1,8-ab]heptalen-2-yl)-3-methyl-4-(trifluoromethyl)aniline], the pIC50 was 9.09 in experiment [2], 6.37 in experiment [3], 5.42 in experiment [4] and 8.79 in experiment [5].
Turning to `C#Cc1cccc2cc(O)cc(-c3nc4c5c(nc(OCC67CCN6CC(F)(F)C7)nc5c3F)N3C[C@H]5CC[C@H](N5)[C@H]3[C@H](C)O4)c12` (single isomer, unassigned) [Compound 20], the pIC50 is 8.11 in experiment [2], 5.65 in experiment [3], 5.06 in experiment [4] and 7.54 in experiment [5].
Regarding `C[C@@H]1Oc2nc(-c3cc(N)cc(F)c3C(F)(F)F)c(F)c3nc(OC[C@@]45CCCN4C[C@H](F)C5)nc(c23)N2C[C@H]3CC[C@H](N3)[C@@H]12` [Compound 17, 3-fluoro-5-((5S,5aS,6S,9R)-1-fluoro-12-(((2R,7aS)-2-fluorotetrahydro-1H-pyrrolizin-7a(5H)-yl)methoxy)-5-methyl-5a,6,7,8,9,10-hexahydro-5H-4-oxa-3,10a,11,13,14-pentaaza-6,9-methanonaphtho[1,8-ab]heptalen-2-yl)-4-(trifluoromethyl)aniline], the negative logarithm of the IC50 (pIC50) in experiment [2] is 9.21; in experiment [3], 5.87; in experiment [4], 5.10; in experiment [5], 8.77.
Consider `Cc1c(F)c(N)cc(-c2nc3c4c(nc(OC[C@@H]5C[C@@H](F)CN5C)nc4c2F)N2C[C@H]4CC[C@H](N4)[C@H]2[C@H](C)O3)c1C(F)(F)F` [Compound 26, 2-Fluoro-5-((5S,5aS,6S,9R)-1-fluoro-12-(((2S,4R)-4-fluoro-1-methylpyrrolidin-2-yl)methoxy)-5-methyl-5a,6,7,8,9,10-hexahydro-5H-4-oxa-3,10a,11,13,14-pentaaza-6,9-methanonaphtho[1,8-ab]heptalen-2-yl)-3-methyl-4-(trifluoromethyl)aniline], for which the pIC50 is 8.49 in experiment [2], 5.81 in experiment [3], 5.12 in experiment [4] and 8.28 in experiment [5].
For `C[C@@H]1Oc2nc(-c3cccc4cccc(Cl)c34)c(F)c3nc(OC[C@@]45CCCN4CC4(CC4(F)F)C5)nc(c23)N2C[C@H]3CC[C@H](N3)[C@@H]12` (stereo partly drawn) [Compound 27, (5S,5aS,6S,9R)-2-(8-chloronaphthalen-1-yl)-12-(((7a′S)-2,2-difluorodihydro-1′H,3′H-spiro[cyclopropane-1,2′-pyrrolizin]-7a′(5′H)-yl)methoxy)-1-fluoro-5-methyl-5a,6,7,8,9,10-hexahydro-5H-4-oxa-3,10a,11,13,14-pentaaza-6,9-methanonaphtho[1,8-ab]heptalene], the pIC50 was 7.17 in experiment [2], 5.62 in experiment [3], 5.56 in experiment [4] and 7.49 in experiment [5].
Take `C[C@@H]1Oc2nc(-c3nc(N)c(F)cc3C(F)(F)F)c(F)c3nc(OC[C@]45CCN4CC(F)(F)C5)nc(c23)N2C[C@H]3CC[C@H](N3)[C@@H]12` [Compound 87, 6-((5S,5aS,6S,9R)-12-(((R)-3,3-Difluoro-1-azabicyclo[3.2.0]heptan-5-yl)methoxy)-1-fluoro-5-methyl-5a,6,7,8,9,10-hexahydro-5H-4-oxa-3,10a,11,13,14-pentaaza-6,9-methanonaphtho[1,8-ab]heptalen-2-yl)-3-fluoro-5-(trifluoromethyl)pyridin-2-amine]: the negative-log IC50 (pIC50) was 5.85 in experiment [2], 4.70 in experiment [3], ≤ 4.70 in experiment [4] and 5.39 in experiment [5].
With `Cc1cc(N)c(F)c(-c2nc3c4c(nc(OCC56CCN5CC(F)(F)C6)nc4c2F)N2C[C@H]4CC[C@H](N4)[C@H]2[C@H](C)O3)c1C(F)(F)F` (mixture of isomers) [Compound 33, 3-((5S,5aS,6S,9R)-12-((3,3-Difluoro-1-azabicyclo[3.2.0]heptan-5-yl)methoxy)-1-fluoro-5-methyl-5a,6,7,8,9,10-hexahydro-5H-4-oxa-3,10a,11,13,14-pentaaza-6,9-methanonaphtho[1,8-ab]heptalen-2-yl)-2-fluoro-5-methyl-4-(trifluoromethyl)aniline], the pIC50 in experiment [2] was 8.89; in experiment [3] it was 5.73; in experiment [4] it was 5.41; in experiment [5], 8.43.
`Cc1cc(N)cc(-c2nc3c4c(nc(OC[C@@]56CCCN5C[C@H](F)C6)nc4c2F)N2C[C@H]4CC[C@H](N4)[C@H]2[C@H](C)O3)c1C(F)(F)F` [Compound 16, 3-((5S,5aS,6S,9R)-1-fluoro-12-(((2R,7aS)-2-fluorotetrahydro-1H-pyrrolizin-7a(5H)-yl)methoxy)-5-methyl-5a,6,7,8,9,10-hexahydro-5H-4-oxa-3,10a,11,13,14-pentaaza-6,9-methanonaphtho[1,8-ab]heptalen-2-yl)-5-methyl-4-(trifluoromethyl)aniline]: the pIC50 in experiment [2] is 9.15; in experiment [3], 6.59; in experiment [4], ≤ 4.70; in experiment [5] it was 8.89.
